# Source: ChEMBL document CHEMBL1649419, “Design and synthesis of pyrimidinone and pyrimidinedione inhibitors of dipeptidyl peptidase IV” (J Med Chem, 2011)
# Key:
# [1] = Half life in rat liver microsomes by LC/MS analysis; assay type: ADME, Microsome
# [2] = Half life in human liver microsomes by LC/MS analysis; assay type: ADME, Microsome
# [3] = Volume of distribution at steady state in monkey at 1.1 mg/kg, iv and 7.6 mg/kg, po; assay type: ADME, organism-based, Macaca mulatta; settings: rhesus monkey, in vivo, read-out: Vdss
# [4] = Half life in monkey at 7.6 mg/kg, po; assay type: ADME, organism-based, Macaca mulatta; parameters: dose 7.6 mg/kg, route oral; settings: rhesus monkey, in vivo
# [5] = AUC in monkey at 7.6 mg/kg, po; assay type: ADME, organism-based, Macaca mulatta; parameters: dose 7.6 mg/kg, route oral; settings: rhesus monkey, plasma
# [6] = Half life in monkey at 1.1 mg/kg, iv; assay type: ADME, organism-based, Macaca mulatta; parameters: dose 1.1 mg/kg, route intravenous; settings: rhesus monkey, in vivo
# [7] = Oral bioavailability in monkey at 7.6 mg/kg; assay type: ADME, organism-based, Macaca mulatta; settings: rhesus monkey, in vivo
# [8] = Half life in dog at 0.85 mg/kg, iv; assay type: ADME, organism-based, Canis lupus familiaris; parameters: dose 0.85 mg/kg, route intravenous; settings: in vivo
# [9] = Half life in dog at 2.7 mg/kg, po; assay type: ADME, organism-based, Canis lupus familiaris; parameters: dose 2.7 mg/kg, route oral; settings: in vivo
# [10] = Volume of distribution at steady state in dog at 0.85 mg/kg, iv and 2.7 mg/kg, po; assay type: ADME, organism-based, Canis lupus familiaris; settings: in vivo, read-out: Vdss
# [11] = AUC in dog at 2.7 mg/kg, po; assay type: ADME, organism-based, Canis lupus familiaris; parameters: dose 2.7 mg/kg, route oral; settings: plasma
# [12] = Oral bioavailability in dog at 2.7 mg/kg; assay type: ADME, organism-based, Canis lupus familiaris; settings: in vivo
Structure (SMILES),half-life [1] [h],half-life [2] [h],also measured
N#Cc1ccc(F)cc1Cn1c(N2CCC[C@@H](N)C2)ncc(F)c1=O,> 3.33,> 3.33,
Cn1c(=O)cc(N2CCC[C@@H](N)C2)n(Cc2ccccc2C#N)c1=O [ALOGLIPTIN],3.33,2.02,
N#Cc1ccccc1Cn1c(N2CCC[C@@H](N)C2)nc(-c2ccccc2)cc1=O,0.2,1.98,
N[C@@H]1CCCN(c2cc(=O)[nH]c(=O)n2Cc2ccccc2Br)C1,> 1.97,> 3.33,
Cn1c(=O)cc(N2CCC[C@@H](N)C2)n(Cc2cc(Cl)ccc2Cl)c1=O,0.167,2.75,
N#Cc1ccccc1Cn1c(N2CCC[C@@H](N)C2)cc(=O)[nH]c1=O,> 3.33,2.15,
Cn1c(=O)cc(N2CCC[C@@](C)(N)C2)n(Cc2cc(F)ccc2C#N)c1=O,0.583,> 3.33,
N#Cc1ccccc1Cn1c(N2CCC[C@@H](N)C2)nc2c(c1=O)CCCC2,0.1,1.38,
Cn1c(=O)c(Cl)c(N2CCC[C@@H](N)C2)n(Cc2ccccc2C#N)c1=O,0.933,2.73,
Cn1c(=O)cc(N2CCC[C@@H](N)C2)n(Cc2ccccc2Br)c1=O,1.37,> 3.33,
CCn1c(=O)cc(N2CCC[C@@H](N)C2)n(Cc2ccccc2C#N)c1=O,0.533,> 3.33,
Cl.N#Cc1ccccc1Cn1c(N2CCC[C@@H](N)C2)ncc(F)c1=O,,,half-life [8]: 4.6 h; half-life [9]: 4.5 h; Vd [10]: 3.5 L/kg; AUC [11]: 3200 ng·h/mL; bioavailability [12]: 80%

# Now from value to compound, other results behind:
half-life [1] [h],half-life [2] [h],Structure (SMILES),also measured
0.983,2.68,N#Cc1ccccc1Cn1c(N2CCC[C@@H](N)C2)ncc(I)c1=O,
> 3.33,> 3.33,CC#Cc1cnc(N2CCC[C@@H](N)C2)n(Cc2ccccc2C#N)c1=O,
0.333,> 3.33,COc1cnc(N2CCC[C@@H](N)C2)n(Cc2ccccc2C#N)c1=O,
1.57,> 3.33,N#Cc1ccccc1Cn1c(N2CCC[C@@H](N)C2)ncc(Br)c1=O,Vd [3]: 4.2 L/kg; half-life [4]: 5.4 h; AUC [5]: 8200 ng·h/mL; half-life [6]: 4.2 h; bioavailability [7]: 112%
0.117,> 3.33,CCc1cnc(N2CCC[C@@H](N)C2)n(Cc2ccccc2C#N)c1=O,
1.18,1.02,N#Cc1ccccc1Cn1c(N2CCC[C@@H](N)C2)ncc(-c2cc[nH]c2)c1=O,
0.45,> 3.33,N#Cc1ccccc1Cn1c(N2CCC[C@@H](N)C2)ncc(/C=C/c2cccnc2)c1=O,
0.683,> 3.33,N#Cc1ccc(F)cc1Cn1c(N2CCC[C@@H](N)C2)ncc(Br)c1=O,
> 3.33,> 3.33,C#Cc1cnc(N2CCC[C@@H](N)C2)n(Cc2ccccc2C#N)c1=O,
0.167,> 3.33,Cc1nc(N2CCC[C@@H](N)C2)n(Cc2ccccc2C#N)c(=O)c1C,
